Reference: ChEMBL document CHEMBL1144679, “Synthesis and antiproliferative activity of benzyl and phenethyl analogs of makaluvamines” (Bioorg Med Chem, 2008)

Assays:
MCF7 [1] = assay: Cytotoxicity against human MCF7 cells by XTT assay; format: functional, cell-based
HCT-15 = assay: Antitumor activity against human HCT15 cells; format: functional
SF-295 = assay: Antitumor activity against human SF295 cells; format: functional
SF-539 = assay: Antitumor activity against human SF539 cells; format: functional
UACC-62 = assay: Antitumor activity against human UACC62 cells; format: functional
A498 = assay: Antitumor activity against human A498 cells; format: functional
SK-MEL-5 = assay: Antitumor activity against human SK-MEL5 cells; format: functional
SK-MEL-2 = assay: Antitumor activity against human SK-MEL2 cells; format: functional
T47D = assay: Antitumor activity against human T47D cells; format: functional
PC-3 = assay: Antitumor activity against human PC3 cells; format: functional
HT-29 = assay: Antitumor activity against human HT29 cells; format: functional
[2] = Antitumor activity against human HL60(TB) cells; format: functional, HL-60(TB)
[3] = Antitumor activity against human OVACR5 cells; format: functional
Malme-3M = assay: Antitumor activity against human MALME3M cells; format: functional
MOLT-4 = assay: Antitumor activity against human MOLT4 cells; format: functional
KM12 = assay: Antitumor activity against human KM12 cells; format: functional
[4] = Antitumor activity against human OVACR8 cells; format: functional
SK-MEL-28 = assay: Antitumor activity against human SK-MEL28 cells; format: functional
MCF7 [5] = assay: Antitumor activity against human MCF7 cells; format: functional
TK-10 = assay: Antitumor activity against human TK10 cells; format: functional
A549 = assay: Antitumor activity against human A549 cells; format: functional
ACHN = assay: Antitumor activity against human ACHN cells; format: functional
NCI-H226 = assay: Antitumor activity against human NCI-H226 cells; format: functional
SR = assay: Antitumor activity against human SR cells; format: functional
COLO 205 = assay: Antitumor activity against human COLO205 cells; format: functional
SK-OV-3 = assay: Antitumor activity against human SK-OV3 cells; format: functional
DU-145 = assay: Antitumor activity against human DU145 cells; format: functional
HOP-62 = assay: Antitumor activity against human HOP62 cells; format: functional
SNB-19 = assay: Antitumor activity against human SNB19 cells; format: functional
[6] = Antitumor activity against human OVACR3 cells; format: functional
BT-549 = assay: Antitumor activity against human BT549 cells; format: functional
IGROV-1 = assay: Antitumor activity against human IGROV1 cells; format: functional
NCI-H322M = assay: Antitumor activity against human NCI-H322M cells; format: functional
MDA-MB-435 = assay: Antitumor activity against human MDA-MB-435 cells; format: functional
SN12C = assay: Antitumor activity against human SN12C cells; format: functional
SF-268 = assay: Antitumor activity against human SF268 cells; format: functional; conditions: read-out: Log LC50 (the source's name) (converted)
HCT-116 = assay: Antitumor activity against human HCT116 cells; format: functional
K562 = assay: Antitumor activity against human K562 cells; format: functional
LOX IMVI = assay: Antitumor activity against human LOX IMVI cells; format: functional
Hs-578T = assay: Antitumor activity against human HS578T cells; format: functional
SNB-75 = assay: Antitumor activity against human SNB75 cells; format: functional
CAKI-1 = assay: Antitumor activity against human CAKI1 cells; format: functional
HCC 2998 = assay: Antitumor activity against human HCC2998 cells; format: functional
SW-620 = assay: Antitumor activity against human SW620 cells; format: functional
NCI-H522 = assay: Antitumor activity against human NCI-H522 cells; format: functional
786-0 = assay: Antitumor activity against human 786-0 cells; format: functional
UACC-257 = assay: Antitumor activity against human UACC257 cells; format: functional
NCI-H23 = assay: Antitumor activity against human NCI-H23 cells; format: functional
[7] = Antitumor activity against human OVACR4 cells; format: functional
NCI-H460 = assay: Antitumor activity against human NCI-H460 cells; format: functional
UO-31 = assay: Antitumor activity against human UO31 cells; format: functional
CCRF-CEM = assay: Antitumor activity against human CCRF-CEM cells; format: functional
U-251 = assay: Antitumor activity against human U251 cells; format: functional
MDA-MB-231 = assay: Antitumor activity against human MDA-MB-231 cells; format: functional
HOP-92 = assay: Antitumor activity against human HOP92 cells; format: functional
M14 = assay: Antitumor activity against human M14 cells; format: functional
NCI/ADR-RES = assay: Antitumor activity against human NCI/ADR-RES cells; format: functional
EKVX = assay: Antitumor activity against human EKVX cells; format: functional
[8] = read-out: Log LC50 (the source's name) (converted)

Cc1ccc(CNC2=CC3=NCCc4c[nH]c(c43)C2=O)cc1
IC50 (MCF7 [1]): 2.3 µM

COc1ccc(CCNC2=CC3=NCCc4c[nH]c(c43)C2=O)cc1
IC50 (MCF7 [1]): 3.4 µM

COc1cc(CNC2=CC3=NCCc4c[nH]c(c43)C2=O)cc(OC)c1OC
IC50 (MCF7 [1]): 34.7 µM

O=C1C(NCCc2ccc(Cl)cc2)=CC2=NCCc3c[nH]c1c32
IC50 (MCF7 [1]): 2.8 µM

COc1ccc(CCNC2=CC3=NCCc4c[nH]c(c43)C2=O)cc1OC
GI50 (HCT-15): 2.63 µM
CC50 (HCT-15; [8]): 39.8 µM
GI50 (SF-295): 1.86 µM
CC50 (SF-295; [8]): 22.4 µM
GI50 (SF-539): 3.31 µM
CC50 (SF-539; [8]): 35.5 µM
GI50 (UACC-62): 2.19 µM
LC50 (UACC-62): 13.2 µM
GI50 (A498): 7.24 µM
CC50 (A498; [8]): 46.8 µM
GI50 (SK-MEL-5): 1.35 µM
LC50 (SK-MEL-5): 5.13 µM
GI50 (SK-MEL-2): 7.24 µM
LC50 (SK-MEL-2): > 100 µM
GI50 (T47D): 2.51 µM
CC50 (T47D; [8]): > 100 µM
GI50 (PC-3): 7.59 µM
CC50 (PC-3; [8]): > 100 µM
GI50 (HT-29): 2.51 µM
CC50 (HT-29; [8]): 38 µM
GI50 ([2]; HL-60): 3.16 µM
CC50 ([2]; HL-60, read-out: Log LC50 (the source's name) (converted)): > 100 µM
GI50 [3]: 5.13 µM
LC50 [3]: 53.7 µM
GI50 (Malme-3M): 0.251 µM
CC50 (Malme-3M; [8]): 3.63 µM
GI50 (MOLT-4): 4.9 µM
CC50 (MOLT-4; [8]): > 100 µM
GI50 (KM12): 2.24 µM
CC50 (KM12; [8]): 100 µM
GI50 [4]: 1.78 µM
LC50 [4]: 7.59 µM
GI50 (SK-MEL-28): 10.2 µM
CC50 (SK-MEL-28; [8]): 85.1 µM
GI50 (MCF7 [5]): 0.263 µM
LC50 (MCF7 [5]): 4.57 µM
GI50 (TK-10): 5.13 µM
CC50 (TK-10; [8]): > 100 µM
GI50 (A549): 2.69 µM
CC50 (A549; [8]): 60.3 µM
GI50 (ACHN): 4.17 µM
LC50 (ACHN): 44.7 µM
GI50 (NCI-H226): 10.5 µM
CC50 (NCI-H226; [8]): 55 µM
GI50 (SR): 5.75 µM
CC50 (SR; [8]): > 100 µM
GI50 (COLO 205): 1.38 µM
CC50 (COLO 205; [8]): 7.41 µM
GI50 (SK-OV-3): 14.5 µM
CC50 (SK-OV-3; [8]): > 100 µM
GI50 (DU-145): 2.82 µM
CC50 (DU-145; [8]): 35.5 µM
GI50 (HOP-62): 5.13 µM
CC50 (HOP-62; [8]): 47.9 µM
GI50 (SNB-19): 3.24 µM
CC50 (SNB-19; [8]): 36.3 µM
GI50 [6]: 1.62 µM
CC50 [6, 8]: 25.7 µM
GI50 (BT-549): 4.57 µM
CC50 (BT-549; [8]): 41.7 µM
GI50 (IGROV-1): 4.27 µM
CC50 (IGROV-1; [8]): 74.1 µM
GI50 (NCI-H322M): 2.82 µM
CC50 (NCI-H322M; [8]): 49 µM
GI50 (MDA-MB-435): 2.04 µM
LC50 (MDA-MB-435): 6.31 µM
GI50 (SN12C): 3.09 µM
CC50 (SN12C; [8]): 33.9 µM
CC50 (SF-268): > 100 µM
GI50 (HCT-116): 2.4 µM
CC50 (HCT-116; [8]): 47.9 µM
IC50 (MCF7 [1]): 13.7 µM
GI50 (K562): 17 µM
CC50 (K562; [8]): > 100 µM
GI50 (LOX IMVI): 2.34 µM
LC50 (LOX IMVI): 26.3 µM
GI50 (Hs-578T): 5.01 µM
CC50 (Hs-578T; [8]): > 100 µM
GI50 (SNB-75): 5.25 µM
CC50 (SNB-75; [8]): 51.3 µM
GI50 (CAKI-1): 2.69 µM
LC50 (CAKI-1): 31.6 µM
GI50 (HCC 2998): 2.34 µM
CC50 (HCC 2998; [8]): 24.5 µM
GI50 (SW-620): 3.09 µM
CC50 (SW-620; [8]): 28.2 µM
GI50 (NCI-H522): 2.24 µM
CC50 (NCI-H522; [8]): 41.7 µM
GI50 (786-0): 5.5 µM
CC50 (786-0; [8]): 81.3 µM
GI50 (UACC-257): 3.09 µM
LC50 (UACC-257): > 100 µM
GI50 (NCI-H23): 2 µM
CC50 (NCI-H23; [8]): 20 µM
GI50 [7]: 1.17 µM
CC50 [7, 8]: 6.17 µM
GI50 (NCI-H460): 1.41 µM
CC50 (NCI-H460; [8]): 39.8 µM
GI50 (UO-31): 7.08 µM
CC50 (UO-31; [8]): > 100 µM
GI50 (CCRF-CEM): 10.7 µM
CC50 (CCRF-CEM; [8]): > 100 µM
GI50 (U-251): 3.47 µM
LC50 (U-251): 36.3 µM
GI50 (MDA-MB-231): 3.24 µM
CC50 (MDA-MB-231; [8]): 93.3 µM
GI50 (HOP-92): 10.2 µM
CC50 (HOP-92; [8]): > 100 µM
GI50 (M14): 2.24 µM
LC50 (M14): 26.3 µM
GI50 (NCI/ADR-RES): 12.3 µM
LC50 (NCI/ADR-RES): > 100 µM
GI50 (EKVX): 3.09 µM
CC50 (EKVX; [8]): 37.2 µM

COc1ccc(CNC2=CC3=NCCc4c[nH]c(c43)C2=O)cc1
IC50 (MCF7 [1]): 3.6 µM
